Source: patent publication US20230117034A1, “PYRAZOLOTRIAZINES” (Bayer Aktiengesellschaft, priority 2019, published 2023)

Molecular target: T1, CDK12 protein level in CAL-120 breast cancer cells (Homo sapiens, UniProt Q9NYV4)
T1 construct: endogenous in cells; host or cells: CAL-120 human breast cancer cells (DSMZ ACC 459)
Test: CDK12 protein level: Protein Simple (CDK12, CAL-120)
Format: cell-based
Details: CAL-120 cells, 18 h with compound, CDK12/HSP90 peak area ratio vs vehicle, median, read-out: CDK12 protein level in CAL-120 breast ca cells, DC50-[mol/l] (median)
In short: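 Cells grown 24 h, then treated with compounds for 18 h at 37° C against DMSO controls. Lysates (0.4 microgramms protein) run on Protein Simple 66-440 kDa size assay with CDK12 and HSP90 loading-control antibodies. CDK12/HSP90 peak-area ratios versus vehicle gave DC50 (50% reduction) by 4-parameter fit.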

T1 sequence (Q9NYV4 whole entry): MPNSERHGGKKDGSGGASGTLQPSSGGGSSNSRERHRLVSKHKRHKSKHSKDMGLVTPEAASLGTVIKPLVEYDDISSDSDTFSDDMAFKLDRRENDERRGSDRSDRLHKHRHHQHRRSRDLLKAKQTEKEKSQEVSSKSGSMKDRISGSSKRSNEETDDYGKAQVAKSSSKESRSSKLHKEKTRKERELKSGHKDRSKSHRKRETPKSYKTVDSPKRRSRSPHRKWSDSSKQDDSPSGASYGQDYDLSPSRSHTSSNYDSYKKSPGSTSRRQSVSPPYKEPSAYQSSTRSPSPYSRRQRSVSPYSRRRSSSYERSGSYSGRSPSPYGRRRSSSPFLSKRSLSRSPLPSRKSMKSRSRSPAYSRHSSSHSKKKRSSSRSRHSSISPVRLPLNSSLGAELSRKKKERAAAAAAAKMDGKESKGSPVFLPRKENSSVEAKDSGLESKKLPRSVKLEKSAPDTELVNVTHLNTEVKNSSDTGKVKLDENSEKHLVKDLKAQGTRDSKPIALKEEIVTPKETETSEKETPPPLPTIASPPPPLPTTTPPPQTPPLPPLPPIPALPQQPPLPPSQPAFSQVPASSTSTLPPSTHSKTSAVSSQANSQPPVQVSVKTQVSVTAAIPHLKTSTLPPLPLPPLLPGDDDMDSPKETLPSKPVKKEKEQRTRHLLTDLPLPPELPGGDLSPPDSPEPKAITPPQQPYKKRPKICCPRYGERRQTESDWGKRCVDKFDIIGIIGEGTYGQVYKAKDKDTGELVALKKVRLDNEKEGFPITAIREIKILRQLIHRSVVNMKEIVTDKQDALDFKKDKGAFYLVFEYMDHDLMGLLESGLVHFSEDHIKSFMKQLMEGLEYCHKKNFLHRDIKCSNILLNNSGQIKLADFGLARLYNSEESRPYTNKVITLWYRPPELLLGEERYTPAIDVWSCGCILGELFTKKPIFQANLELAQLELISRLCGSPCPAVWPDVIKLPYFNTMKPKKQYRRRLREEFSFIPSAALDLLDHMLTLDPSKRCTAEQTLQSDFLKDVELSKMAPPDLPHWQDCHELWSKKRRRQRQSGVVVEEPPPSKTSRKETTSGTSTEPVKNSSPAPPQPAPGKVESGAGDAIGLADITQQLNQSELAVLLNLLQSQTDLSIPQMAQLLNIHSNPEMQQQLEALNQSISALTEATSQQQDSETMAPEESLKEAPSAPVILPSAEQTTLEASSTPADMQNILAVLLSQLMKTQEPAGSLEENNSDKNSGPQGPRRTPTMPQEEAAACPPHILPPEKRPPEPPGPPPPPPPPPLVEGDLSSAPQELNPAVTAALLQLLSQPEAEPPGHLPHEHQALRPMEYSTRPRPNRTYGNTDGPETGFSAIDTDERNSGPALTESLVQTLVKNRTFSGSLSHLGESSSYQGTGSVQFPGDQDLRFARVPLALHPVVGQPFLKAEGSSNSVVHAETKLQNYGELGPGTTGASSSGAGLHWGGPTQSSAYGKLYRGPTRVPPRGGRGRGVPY
T1 sequence (O75909 whole entry partner): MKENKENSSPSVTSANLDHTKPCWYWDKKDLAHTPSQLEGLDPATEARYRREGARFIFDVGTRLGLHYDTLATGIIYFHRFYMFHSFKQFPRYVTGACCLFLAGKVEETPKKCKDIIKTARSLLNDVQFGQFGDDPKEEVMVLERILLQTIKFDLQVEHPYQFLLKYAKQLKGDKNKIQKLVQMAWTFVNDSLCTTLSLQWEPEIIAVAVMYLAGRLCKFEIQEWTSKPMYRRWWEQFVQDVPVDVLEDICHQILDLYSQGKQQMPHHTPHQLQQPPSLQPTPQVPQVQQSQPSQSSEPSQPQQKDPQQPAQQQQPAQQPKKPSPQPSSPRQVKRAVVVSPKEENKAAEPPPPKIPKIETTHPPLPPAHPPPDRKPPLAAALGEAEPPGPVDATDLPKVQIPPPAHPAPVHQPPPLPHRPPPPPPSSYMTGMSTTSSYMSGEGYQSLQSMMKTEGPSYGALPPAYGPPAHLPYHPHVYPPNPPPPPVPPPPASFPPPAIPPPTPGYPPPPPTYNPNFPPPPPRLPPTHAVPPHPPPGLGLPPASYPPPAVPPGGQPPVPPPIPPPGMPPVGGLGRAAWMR

With `CC(C)c1cnn2c(NCc3ncc(-c4ccccc4)[nH]3)nc(N3CCN(C)CC3)nc12` [Example 31, 2-(4-methylpiperazin-1-yl)-N-[(5-phenyl-1H-imidazol-2-yl)methyl]-8-(propan-2-yl)pyrazolo[1,5-a][1,3,5]triazin-4-amine] the DC50 was 10.9 nM.
`Fc1ccc(-c2nnc(CNc3nc(N4CCOCC4)nc4c(Br)cnn34)[nH]2)cc1` [Example 29, 8-bromo-N-{[5-(4-fluorophenyl)-4H-1,2,4-triazol-3-yl]methyl}-2-(morpholin-4-yl)pyrazolo[1,5-a][1,3,5]triazin-4-amine] was tested, and the DC50 was 9.15 nM.
With `Cc1ccnc2[nH]c(CNc3nc(N4CCOCC4)nc4c(C(C)C)cnn34)nc12` [Example 28, N-[(7-methyl-3H-imidazo[4,5-b]pyridin-2-yl)methyl]-2-(morpholin-4-yl)-8-(propan-2-yl)pyrazolo[1,5-a][1,3,5]triazin-4-amine] the DC50 was 1.44 nM.
Work on `Cc1[nH]c(CNc2nc(N3CCOCC3)nc3c(Br)cnn23)nc1-c1ccccc1` [Example 27, 8-bromo-N-[(5-methyl-4-phenyl-1H-imidazol-2-yl)methyl]-2-(morpholin-4-yl)pyrazolo[1,5-a][1,3,5]triazin-4-amine] yielded a DC50 of 44.6 nM.
